# Results as given in US20110178104A1, “Anti-Heparin Compounds” (POLYMEDIX INC., priority 2010, published 2011).
# Legend:
# [1] = tested on: unfractionated heparin (UFH); test: aPTT clotting assay, UFH 0.2 U/mL in plasma (Example 7); assay type: biochemical; conditions: UFH 0.2 U/mL in plasma
# Description: aPTT clotting Assay. Unfractionated heparin was mixed with plasma at a final concentration of 0.2 U/mL. […] The ACL Elite Hemostasis analyzer (Beckman Coulter™) was used to add aPTT reagent (HemosIL SynthASil) to supplemented plasma. Clotting was initiated by addition of CaCl2 and time to clot was recorded.
# enoxaparin (ENOX) = test: FXa chromogenic assay (absence of plasma), enoxaparin; conditions: enoxaparin 0.1 μg/mL, absence of plasma
# fondaparinux (FONDAPX) = test: FXa chromogenic assay (absence of plasma), fondaparinux; conditions: fondaparinux 0.02 μg/mL, absence of plasma
SMILES,UFH (aPTT) EC50 [1],ENOX (FXa) EC50 (enoxaparin (ENOX)) [µg/mL],FONDAPX (FXa) EC50 (fondaparinux (FONDAPX))
COc1ccc(NC(=O)[C@@H](CCCNC(=N)N)NC(=O)c2cc(NC(=O)[C@@H](CCCNC(=N)N)NC(=O)c3cc(NC(=O)[C@@H](CCCNC(=N)N)NC(=O)c4cc(NC(=O)[C@H](N)CCCNC(=N)N)ccc4OCCNC(=N)N)ccc3OC)ccc2OC)cc1C(N)=O [Compound 19],2.11 µg/mL,0.27,3.35 µg/mL
COc1ccc(NC(=O)[C@H](CCCCN)NC(=O)c2cc(NC(=O)[C@H](CCCCN)NC(=O)c3cc(NC(=O)[C@H](CCCCN)NC(=O)c4cc(NC(=O)[C@H](N)CCCCN)ccc4OC)ccc3OC)ccc2OC)cc1C(N)=O [Compound 122],3.91 µg/mL,0.3254,6.037 µg/mL
COc1ccc(NC(=O)[C@@H](Cc2c[nH]c3ccccc23)NC(=O)c2cc(NC(=O)[C@@H](CCCNC(=N)N)NC(=O)c3cc(NC(=O)[C@@H](CCCNC(=N)N)NC(=O)c4cc(NC(=O)[C@H](N)CCCNC(=N)N)ccc4OC)ccc3OC)ccc2OC)cc1C(N)=O [Compound 84],3.09 µg/mL,0.32,1.99 µg/mL
COc1ccc(NC(=O)[C@@H](CCCNC(=N)N)NC(=O)c2cc(NC(=O)[C@@H](CCCNC(=N)N)NC(=O)c3cccc(NC(=O)[C@@H](CCCNC(=N)N)NC(=O)c4cc(NC(=O)[C@H](N)CCCNC(=N)N)ccc4OC)c3)ccc2OC)cc1C(N)=O [Compound 69],1.58 µg/mL,0.19,2.74 µg/mL
CN(C)CCNC(=O)c1cc(C(=O)N[C@H]2CC[C@H](NC(=O)c3cc(C(=O)NCCN(C)C)c(OCCCCCN)cc3OCCCCCN)CC2)c(OCCCCCN)cc1OCCCCCN [Compound 5],19.76 µg/mL,23.71,inactive
COC(=O)c1cc(NC(=O)[C@H](CCCCN)NC(=O)c2cc(NC(=O)[C@H](CCCCN)NC(=O)c3cc(NC(=O)[C@H](CCCCN)NC(=O)c4cc(NC(=O)[C@@H](N)CCCCN)ccc4OC)ccc3OC)ccc2OC)ccc1OC [Compound 115],2.44 µg/mL,0.7967,>20 µg/mL
COc1ccc(NC(=O)[C@@H](CCCNC(=N)N)NC(=O)CCCCNC(=N)N)cc1C(=O)N[C@H](CCCNC(=N)N)C(=O)Nc1ccc(OC)c(C(=O)N[C@H](CCCNC(=N)N)C(=O)Nc2ccc(OC)c(C(=O)N[C@H](CCCNC(=N)N)C(=O)Nc3ccc(OCCNC(=N)N)c(C(N)=O)c3)c2)c1 [Compound 27],2.19 µg/mL,0.10,2.51 µg/mL
COc1ccc(NC(=O)[C@@H](C)NC(=O)CCCCNC(=N)N)cc1C(=O)N[C@H](CCCNC(=N)N)C(=O)Nc1ccc(OC)c(C(=O)N[C@H](CCCNC(=N)N)C(=O)Nc2ccc(OC)c(C(=O)N[C@H](CCCNC(=N)N)C(=O)Nc3ccc(OCCNC(=N)N)c(C(N)=O)c3)c2)c1 [Compound 44],2.38 µg/mL,0.21,2.91 µg/mL
COc1ccc(NC(=O)[C@@H](CCCNC(=N)N)NC(=O)c2cc(NC(=O)[C@@H](CCCNC(=N)N)NC(=O)c3cc(NC(=O)[C@@H](CCCNC(=N)N)NC(=O)c4cc(NC(C)=O)ccc4OC)ccc3OC)ccc2OC)cc1C(N)=O [Compound 93],2.28 µg/mL,0.38,0.42 µg/mL
COc1cc(OC)c(C(=O)Nc2cc(C(F)(F)F)cc(NC(=O)CCCCNC(=N)N)c2SCCN)cc1C(=O)Nc1cc(C(F)(F)F)cc(NC(=O)CCCCNC(=N)N)c1SCCN [Compound 1],inactive,0.18,inactive
COc1ccc(NC(=O)[C@@H](CCCNC(=N)N)NC(=O)c2cc(NC(=O)[C@@H](CCCNC(=N)N)NC(=O)c3cc(NC(=O)[C@@H](CCCNC(=N)N)NC(=O)c4cc(NC(=O)[C@H](N)CCCNC(=N)N)ccc4OC)ccc3OC)ccc2OC)cc1C(N)=O [Compound 136],2.91 µg/mL,0.194,0.8018 µg/mL
COc1ccc(NC(=O)[C@H](CCCCN)NC(=O)c2cc(NC(=O)[C@H](CCCCN)NC(=O)c3cc(NC(=O)[C@H](CCCCN)NC(=O)c4c[nH]c5ccccc45)ccc3OC)ccc2OC)cc1C(N)=O [Compound 100],7.13 µg/mL,1.12,2.482 µg/mL
COc1ccc(NC(=O)[C@H](CCCNC(=N)N)NC(=O)c2cc(NC(=O)[C@H](CCCNC(=N)N)NC(=O)c3cc(NC(=O)[C@H](CCCNC(=N)N)NC(=O)c4cc(NC(=O)[C@@H](N)CCCNC(=N)N)ccc4OC)ccc3OC)ccc2OC)cc1C(N)=O [Compound 7],1.84 µg/mL,0.21,1.49 µg/mL
COc1ccc(NC(=O)[C@H](CCCCN)NC(=O)c2cc(NC(=O)[C@H](CCCCN)NC(=O)c3cc(NC(=O)[C@H](CCCCN)NC(=O)c4cc(NC(=O)[C@H](C)N)ccc4OC)ccc3OC)ccc2OC)cc1C(N)=O [Compound 95],2.42 µg/mL,0.5734,5.277 µg/mL
COc1ccc(NC(=O)[C@H](CCCCN)NC(=O)c2cc(NC(=O)[C@H](CCCCN)NC(=O)c3cc(NC(=O)[C@H](CCCCN)NC(=O)c4cc(NC(=O)[C@@H](N)CCCCN)ccc4OC)ccc3OC)ccc2OC)cc1C(=O)N[C@@H](CCCNC(N)=O)C(=O)O [Compound 142],2.88 µg/mL,0.592,7.045 µg/mL
COc1ccc(C(=O)N[C@@H](CCCCN)C(=O)Nc2ccc(OC)c(C(=O)N[C@@H](CCCCN)C(=O)Nc3ccc(OC)c(C(=O)N[C@@H](CCCCN)C(=O)Nc4ccc(OC)c(C(N)=O)c4)c3)c2)cc1NC(=O)[C@@H](N)CCCCN [Compound 99],1.54 µg/mL,0.2998,6.132 µg/mL
CNc1cccc(C(=O)N[C@@H](CCCCN)C(=O)Nc2ccc(OC)c(C(=O)N[C@@H](CCCCN)C(=O)Nc3ccc(OC)c(C(=O)N[C@@H](CCCCN)C(=O)Nc4ccc(OC)c(C(N)=O)c4)c3)c2)c1 [Compound 128],4.17 µg/mL,1.651,8.495 µg/mL
COc1ccc(NC(=O)[C@@H](CCCNC(=N)N)NC(=O)c2cc(NC(=O)[C@@H](CCCNC(=N)N)NC(=O)c3cc(NC(=O)[C@@H](CCCNC(=N)N)NC(=O)c4cc(NC(=O)[C@H](N)CCCNC(=N)N)ccc4OC)ccc3OC)ccc2OC)cc1C(=O)NCCCCCN [Compound 41],1.65 µg/mL,0.16,3.85 µg/mL
COc1ccc(NC(=O)[C@@H](CCCNC(=N)N)NC(=O)c2cc(NC(=O)[C@@H](CCCNC(=N)N)NC(=O)c3cc(NC(=O)[C@@H](CCCNC(=N)N)NC(=O)c4cc(NC(=O)[C@H](N)CCCNC(=N)N)ccc4OC)ccc3OCCNC(=N)N)ccc2OCCNC(=N)N)cc1C(N)=O [Compound 11],5.79 µg/mL,1.66,7.04 µg/mL
COc1ccc(NC(=O)[C@H](CCCCN)NC(=O)c2cc(NC(=O)[C@H](CCCCN)NC(=O)c3cc(NC(=O)[C@H](CCCCN)NC(=O)c4cc(NC(=O)[C@@H](N)CCCCN)ccc4OC)ccc3OC)ccc2OC)cc1C(=O)N[C@@H](Cc1ccccc1)C(=O)O [Compound 110],2.31 µg/mL,0.694,2.951 µg/mL
COc1ccc(NC(=O)[C@H](CCCCN)NC(=O)c2cc(NC(=O)[C@H](CCCCN)NC(=O)c3cc(NC(=O)[C@H](CCCCN)NC(=O)c4cnc(N)s4)ccc3OC)ccc2OC)cc1C(N)=O [Compound 131],3.68 µg/mL,4.499,>20 µg/mL
COc1ccc(NC(=O)[C@H](CCCCN)NC(=O)c2cc(NC(=O)[C@H](CCCCN)NC(=O)c3cc(NC(=O)[C@H](CCCNC(N)=O)NC(=O)c4cc(NC(=O)[C@@H](N)CCCCN)ccc4OC)ccc3OC)ccc2OC)cc1C(N)=O [Compound 138],2.15 µg/mL,0.3298,2.332 µg/mL
COc1ccc(NC(=O)[C@H](CCCCN)NC(=O)c2cc(NC(=O)[C@@H](N)CCCCN)ccc2OC)cc1C(=O)N[C@@H](CCCCN)C(=O)Nc1ccc(OC)c(C(=O)N[C@@H](CCCCN)C(=O)Nc2ccc(SC)c(C(N)=O)c2)c1 [Compound 134],2.84 µg/mL,1.829,inactive
